Values of other authors as cited in patent publication US20240050502A1, “AMANITA MUSCARIA COMPOUNDS” (priority 2020, published 2024).

Assays:
mice = conditions: for LD50: intravenous administration in mice
[1] = in vivo
monkey = conditions: quantity many times that which would cause poisoning by ingestion of Amanita muscaria in the human
[2] = tested on: inflammatory pain induced by formalin; conditions: mice

Compound: N[C@H](C(=O)O)c1cc(=O)[nH]o1 [ibotenic acid]
- LD50 (mice): 15 mg/kg
- oral LD50 (mice; oral, mice): 38 mg/kg
- minimum dose needed to obtain psychedelic effects [1]: 30 to 60 mg

Compound: C[C@@H]1O[C@H](C[N+](C)(C)C)C[C@H]1O [muscarine]
- activity by mouth (monkey): inactive

Compound: NCc1cc(=O)[nH]o1 [muscimol]
- LD50 (mice): 5.62 mg/kg
- dose at which central nervous system intoxication occurs [1]: 6.0 mg

Compound: fucomannogalactan
- inflammatory pain induced by formalin [2]: significantly reduced

Compound: β(1→6)-branched (1→3)-β-d-glucan
- antitumor activity against sarcoma 180 tumors (sarcoma 180 tumors; mice): significant antitumor activity
- antitumor effect when mixed with mitomycin C (sarcoma 180 tumors; mixed with the chemotherapy drug mitomycin C): greater than that of mitomycin C alone
